Where two headings read alike, the source gives them in different places.

One assay concerns the target T1, POS-1 (Caenorhabditis elegans, UniProt G5EF15).
T1 construct: 6-his tag (N); made in house; host or cells: E. coli BL21 (DE3) Gold
T1 sequence (G5EF15 80-180): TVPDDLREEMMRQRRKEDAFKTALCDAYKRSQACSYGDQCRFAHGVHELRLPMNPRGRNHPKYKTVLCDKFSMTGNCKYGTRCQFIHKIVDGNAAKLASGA
Briefly: Fluorescence polarization screening of POS-1 binding to fluorescein-labeled BMF018 RNA. The following applies: read-out: POS-1 score. (Fluorescence polarisation rises when a labelled molecule tumbles more slowly, as on binding a larger partner.)

Another assay addresses T2, MEX-5 (Caenorhabditis elegans, UniProt Q9XUB2).
T2 construct: The fragment of mex-5 containing the TZF domain (amino acids 236-350) was amplified; made in house; host or cells: Escherichia coli JM109
T2 sequence (Q9XUB2 236-350): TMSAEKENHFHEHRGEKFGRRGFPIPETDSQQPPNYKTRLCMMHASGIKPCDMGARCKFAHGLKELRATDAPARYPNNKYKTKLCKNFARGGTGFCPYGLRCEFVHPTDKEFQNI
Briefly: Fluorescence polarization screening of MEX-5 binding to fluorescein-labeled TCR2 RNA. As to conditions: read-out: MEX-5 score. The text has this: The expression and purification of recombinant MEX-5 protein has previously been described in Pagano, J. M., Farley, B. M., McCoig, L. M. and Ryder, S. P. (2007) “Molecular basis of RNA recognition by the embryonic polarity determinant MEX-5;” J Biol Chem; 282, 8883-8894. The fragment of mex-5 containing the TZF domain (amino acids 236-350) was amplified from a commercially available ORFeome clone (Open Biosystems) and sub-cloned into the vector pMal-c (NEB), which encodes maltose binding protein as an N-terminal fusion. This construct is termed pMal-MEX-5 (236-350).
MEX-5 is expressed in Escherchia. coli JM109 liquid cultures grown at 37° C. Cultures were induced during mid log phase by the addition of 0.1 mM isopropyl 1-thio-β-D-galactopyranoside (IPTG) and allowed to grow for three hours. An amount of 100 μM zinc acetate (final concentration) was added at the time of induction. The pelleted cells were resuspended in lysis buffer (50 mM Tris pH 8.8, 200 mM NaCl, 2 mM DTT, EDTA free protease inhibitor tablet (Roche), 100 μM Zn(OAc)2) and lysed by sonication. The soluble protein was purified in three steps using standard chromatography methods: (1) amylose affinity (NEB), (2) Hi-TRAP-Q (GE Healthcare), and (3) Hi-TRAP-S (GE Healthcare). The Q buffer was composed of 50 mM Tris, pH 8.8, 20 mM-1500 mM NaCl, 2 mM DTT, and 100 μM Zn(OAc)2. The S buffer was composed of 50 mM MOPS, pH 6.0, 20 mM-1500 mM NaCl, 2 mM DTT, 100 μM Zn(OAc)2. The pure fractions, determined by coomassie-stained SDS-PAGE, were dialyzed into storage buffer (20 mM Tris, pH 8.0, 25 mM NaCl, 100 μM Zn(OAc)2, 2 mM DTT). The protein concentration was determined by measuring absorbance at 280 nm and the calculated extinction coefficient. The protein was stored at 50 μM concentration at 4° C.
All RNA oligonucleotides were chemically synthesized by Dharmacon or Integrated DNA Technologies. Upon arrival, each RNA was deprotected and stored according to the manufacturer's instructions. Prior to use, the RNA was resuspended in 10 mM Tris-HCl, pH 8.0, 0.1 mM EDTA, and the concentration determined by UV spectrophotometry using the calculated extinction coefficient at 260 nm based on the specific sequence. The sequence of the MEX-5 binding RNA (TCR2) is […] (SEQ ID NO:1). The POS-1 binding RNA (BMF018) is […] (SEQ ID NO:2). The MEX-3 binding RNA (SEQ 14) is […] (SEQ ID NO:3).
The RNA used for the small molecule screen was labeled at the 3′-end with fluorescein by Dharmacon during synthesis. In a few cases, follow up experiments were performed with post-synthetically labeled RNA. In this case, fluorescein 5-thiosemicarbazide (FTSC, Invitrogen) was used to 3′-end label each RNA after treatment with sodium periodate (see Reines, S. A. and Cantor, C. R. (1974) “New fluorescent hydrazide reagents for the oxidized 3′-terminus of RNA” Nucleic Acids Res. 1, 767-786). A representative 50 μl reaction consisted of 0.5 nanomoles RNA, 100 mM NaOAc, pH 5.1, and 5 nanomoles NaIO4. After the reaction was complete (90 minutes at room temperature), the sample was ethanol precipitated by adding 1 μl RNase free glycogen (Invitrogen 20 μg/μl), 1/20th volume of 5 M NaCl, and 2 volumes of 100% ice-cold ethanol. The resulting pellet was resuspended in 50 μl of 100 mM NaOAc, pH 5.1 containing 1 mM FTSC and was allowed to react overnight at 4° C. in the dark. The unreacted label was removed by ethanol precipitation with resuspension of the pellet in a small volume of TE, and purification over a Roche G-25 size exclusion spin column. The labeling efficiency is determined by calculating the ratio of fluorescein absorbance at 490 nm to RNA-fluorescein absorbance at 260 nm. Typical efficiencies are 60-80%.
The ability of MEX-5 to associate with RNA was monitored by fluorescence polarization using a victor V3 or victor V2V plate reader (Perkin Elmer) in 384-well FluoTrak microplates (Grenier). […]

[1] abbreviates: 192 μM test compound, score = polarization relative to no-drug and no-protein controls, 0.25 = 75% inhibition, lowest score = greatest inhibition.

On to `Cc1nnc(NC(=O)c2cccc(C(=O)Nc3nnc(C)s3)n2)s1` [AF], for which the remaining activity at 192 µM at POS-1 (setting [1]) was found to be 22.7%; at MEX-5 (setting [1]) it was 8.13%.

For the molecule `O=C(O)CCn1cc(C=C2C(=O)NC(=S)NC2=O)c(-c2cc3ccccc3oc2=O)n1` [BA], the remaining activity at 192 µM at POS-1 worked out at 22.2%; at MEX-5, 15.2%.

With `COC(=O)c1ccccc1OC(=O)c1ccc2c(c1)C1C=CCC1C(C(=O)O)N2` (stereo not shown) [A], the remaining activity at 192 µM on POS-1 (setting [1]) is 7.5%; on MEX-5 (setting [1]) it was -10.3%.

`Oc1ccc(Br)cc1-c1n[nH]c(=S)n1Cc1ccccc1` [CB]: the remaining activity at 192 µM was found to be 23.9% on POS-1 (setting [1]) and 21.7% on MEX-5 (setting [1]).

With `COc1ccc(C(=O)NC(=S)Nc2ccc(C(=O)O)c(Cl)c2)cc1[N+](=O)[O-]` [BF], the results for the remaining activity at 192 µM on POS-1 (setting [1]) and on MEX-5 (setting [1]) were 9.05% and 16.7%, respectively.

For the molecule `O=C(Cn1cnc2ccccc2c1=O)Nc1ccc(S(=O)(=O)Nc2nccs2)cc1` [BJ], the remaining activity at 192 µM on POS-1 (setting [1]) amounted to 11.9%; at MEX-5 (setting [1]), 18.2%.

With `COc1ccc(NC(=S)c2nc3ccccc3[nH]2)cc1` [T], the remaining activity at 192 µM at POS-1 (setting [1]) was 8.99%; on MEX-5 (setting [1]) it was 5.51%.

On to `Cc1ccc(O)c(NS(=O)(=O)c2ccc([N+](=O)[O-])cc2)c1` [CD], for which the remaining activity at 192 µM on POS-1 (setting [1]) stood at 12.4%; at MEX-5 (setting [1]) it was 22.6%.

As to `O=S(=O)(Nc1ccc(Cl)cc1O)c1ccccc1` [D], the remaining activity at 192 µM at POS-1 (setting [1]) was -3.79%; on MEX-5 (setting [1]) it was -1.58%.

For the molecule `CCOC(=O)c1ccccc1OC(=O)c1ccc2c(c1)C1C=CCC1C(C(=O)O)N2` (stereo not shown) [B], the remaining activity at 192 µM at POS-1 (setting [1]) is 5.51%; on MEX-5 (setting [1]), -3.69%.

As for `O=c1cc(-c2ccccc2)c2ccc(O)c(O)c2o1` [I], the remaining activity at 192 µM at POS-1 (setting [1]) is 0.543%; at MEX-5 (setting [1]), -0.142%.

For the molecule `Cc1ccc(S(=O)(=O)NC(=S)NCc2cccc(Oc3ccccc3)c2)cc1` [BY], the remaining activity at 192 µM on POS-1 (setting [1]) was found to be 14.4%; at MEX-5 (setting [1]), 21.3%.

For `O=C(O)c1ccccc1NC(=S)NC(=O)c1sc2ccccc2c1Cl` [BP], the figures for the remaining activity at 192 µM on POS-1 (setting [1]) and at MEX-5 (setting [1]) were 4.54% and 19.2%, respectively.

`O=C(O)C1Nc2cc(Cl)cc(Cl)c2C2C=CCC12` (stereo not shown) [W]: the remaining activity at 192 µM on POS-1 (setting [1]) came to 5.39%; at MEX-5 (setting [1]) it was 6.4%.

As to `O=C(O)c1ccc(C2Nc3ccc([N+](=O)[O-])cc3C3c4ccccc4CC23)cc1` (stereo not shown) [AB], the remaining activity at 192 µM stood at 10.9% on POS-1 (setting [1]) and 7.3% at MEX-5 (setting [1]).

For `O=C(Oc1ccc2c(c1)C1C=CCC1C(C(=O)O)N2)c1ccc(Cl)cc1Cl` (stereo not shown) [K], the remaining activity at 192 µM on POS-1 (setting [1]) worked out at 5.81%; at MEX-5 (setting [1]), 0.00138%.

`COc1cc2ccccc2cc1C(=O)NC(=S)Nc1cccc(C(=O)O)c1` [BS]: the values for the remaining activity at 192 µM at POS-1 (setting [1]) and on MEX-5 (setting [1]) were 24.3% and 20%, respectively.

Take `O=C(Nc1nnc[nH]1)c1ccccc1O` [AI]: the remaining activity at 192 µM on POS-1 (setting [1]) was found to be 2.5%; at MEX-5 (setting [1]), 9.13%.

As for `CC1(C)Cc2ccccc2-c2[nH]c3nnc(S)n3c(=O)c21` [O], the remaining activity at 192 µM at POS-1 (setting [1]) was 4.77%; at MEX-5 (setting [1]) it was 2.3%.

For `Cc1sc(NC(=O)c2cnccn2)c(C(N)=O)c1C` [AZ], the remaining activity at 192 µM came to 25.4% on POS-1 (setting [1]) and 14.4% on MEX-5 (setting [1]).

In the case of `COc1ccccc1C(=O)NC(=S)Nc1ccc(C(=O)O)c(Cl)c1` [BV], the remaining activity at 192 µM at POS-1 (setting [1]) worked out at 12.2%; at MEX-5 (setting [1]), 21.1%.

As for `CCCCN1C(=O)/C(=c2\sc3nc(-c4ccccc4OC(C)=O)nn3c2=O)c2ccccc21` [M], the remaining activity at 192 µM on POS-1 (setting [1]) turned out to be 11.7%; on MEX-5 (setting [1]), 1.62%.

Take `CC(=O)Oc1ccc(S(=O)(=O)c2ccc(OC(C)=O)c(OC(C)=O)c2)cc1OC(C)=O` [J]: the remaining activity at 192 µM on POS-1 (setting [1]) was 8.51%; at MEX-5 (setting [1]), -0.0941%.

In the case of `Oc1ccc(-c2csc(Nc3cccc4ccccc34)n2)cc1O` [AY], the remaining activity at 192 µM is 18% on POS-1 (setting [1]) and 14.1% on MEX-5 (setting [1]).

Consider `Sc1nnc(CSCc2ccccc2Cl)n1-c1ccccc1` [BL], for which the remaining activity at 192 µM came out at 27.6% at POS-1 (setting [1]) and 18.8% on MEX-5 (setting [1]).

For `O=C(O)C1CCC(N2C(=O)c3c(Cl)c(Cl)c(Cl)c(Cl)c3C2=O)CC1` (stereo not shown) [AO], the remaining activity at 192 µM on POS-1 (setting [1]) was found to be 6.81%; at MEX-5 (setting [1]), 10.6%.

In the case of `O=C(O)c1cc(NC(=O)c2cccc(N3C(=O)CCC3=O)c2)cc(C(=O)O)c1` [AH], the remaining activity at 192 µM on POS-1 (setting [1]) stood at 14.6%; on MEX-5 (setting [1]), 8.76%.

Turning to `O=C(Oc1ccc2ccccc2c1)c1ccc2c(c1)C1C=CCC1C(C(=O)O)N2` (stereo not shown) [H], the remaining activity at 192 µM at POS-1 (setting [1]) is 1.95%; on MEX-5 (setting [1]) it was -0.336%.

In the case of `CCOc1cc(C(NC(C)=O)c2cc([N+](=O)[O-])c3cccnc3c2O)ccc1O` (stereo not shown) [AL], the remaining activity at 192 µM came to 12.3% on POS-1 (setting [1]) and 10.4% at MEX-5 (setting [1]).

For the molecule `O=S(=O)(Nc1nc(-c2ccccc2)c(-c2ccccc2)o1)c1ccc(Cl)cc1` [CO], the remaining activity at 192 µM worked out at 16% on POS-1 (setting [1]) and 24.1% at MEX-5 (setting [1]).

Turning to `CCc1nnc(NS(=O)(=O)c2ccc(NC(=O)c3cc4cc(OC)ccc4oc3=O)cc2)s1` [BU], the remaining activity at 192 µM at POS-1 (setting [1]) was 18.1%; at MEX-5 (setting [1]) it was 20.8%.

Consider `Cn1c(S)nnc1-c1ccccc1O` [Z], for which the remaining activity at 192 µM at POS-1 (setting [1]) came out at 12.7%; at MEX-5 (setting [1]) it was 6.88%.

For `Cc1n[nH]c(SCc2cccc(CSc3nc(C)n[nH]3)c2)n1` [L], the figures for the remaining activity at 192 µM on POS-1 (setting [1]) and on MEX-5 (setting [1]) were -0.0864% and 1.21%, respectively.

As to `CC(=O)NC(c1ccco1)c1cc([N+](=O)[O-])c2cccnc2c1O` (stereo not shown) [Y], the results for the remaining activity at 192 µM at POS-1 (setting [1]) and at MEX-5 (setting [1]) were 6.04% and 6.77%, respectively.

Take `Cc1[nH]nc(-c2ccc(O)c(O)c2O)c1-c1ccccc1` [P]: the remaining activity at 192 µM was 4.3% at POS-1 (setting [1]) and 3.42% at MEX-5 (setting [1]).

For the molecule `O=[N+]([O-])c1ccc(S(=O)(=O)Nc2cc(Cl)ccc2O)cc1` [AD], the remaining activity at 192 µM was 8.27% on POS-1 (setting [1]) and 8.04% at MEX-5 (setting [1]).

As for `COc1ccc(N2C(=O)NC(=O)/C(=C/c3cccc(OC(=O)c4cccs4)c3)C2=O)cc1Cl` [AV], the remaining activity at 192 µM amounted to 10.9% at POS-1 and 14% on MEX-5.

Turning to `CC1(C)CC(Cc2nnc(S)[nH]2)C(=O)O1` (stereo not shown) [S], the remaining activity at 192 µM at POS-1 (setting [1]) is 10.5%; on MEX-5 (setting [1]), 5%.

These data come from US8962244B2, “Compounds for modulating RNA binding proteins and uses therefor” (University of Massachusetts, priority 2009, dated 2015).
